Entries after “also recorded” stand apart in the source; their conditions may differ.
Experiments:
SKOV-3 cells [1] = assay: Cell viability MTT assay; type: cell-based, human; settings: SKOV-3, days 3 to 7 post transfection, vs scrambled control siRNA
Description: (§1) A siRNA duplex specific for TSG101 (targeting TSG101 coding sequence 413-433) and a scrambled random control siRNA with matching GC content were obtained from Dharmacon. This specific TSG101 siRNA duplex (sense: CCUCCAGUCUUCUCUCGUCdTdT (SEQ ID NO: 7) and antisense: dTd[…] (SEQ ID NO: 8) have been successfully applied to suppress the expression of endogenous TSG101 in several high quality studies (Amit et al., 2004; Garrus et al., 2001; Hewitt et al., 2002; Ismaili et al., 2005). Transfection of the siRNAs was according to the manufacturer's instructions using Lipofectamine 2000 (Invitrogen).
SKOV-3 cells were trypsinized 48 hrs post-transfection with siRNAs and plated at 2×10^3 cells/well in 96 well plates, with 5 wells for each treatment. On subsequent days (days 3 to 7), media was removed and 100 μl/well fresh media was added along with 10 μl of 3-(4,5-dimethylthiazol-2-yl)-2,5-diphenyl tetrazolium bromide (MTT) to a final concentration of 500 μg/ml. Cells were incubated for 3 hrs at 37° C., and then lysed by adding 200 μl/well DMSO and incubating at 37° C. for 1 hr. Cell viability was measured by reduction of MTT, which registered absorbance at 595 nm on a Molecular Devices microplate reader.

SKOV-3 cells [2] = assay: In vivo tumor formation assay in nude mice; design: species or system Balb/c athymic nude mice; settings: siRNA-transfected SKOV-3 cells injected s.c. into flanks of nude mice, four mice, vs control siRNA cells
Method: SKOV-3 cells were trypsinized 3 days following transfection with either Control or TSG101 siRNA, and subsequently washed and resuspended in phosphate-buffered saline at 5×10^6 cells/ml. 200 μl (1×10^6 cells) of control or TSG101 transfected SKOV-3 cells were injected s.c. into the right and left flanks (respectively) of 4-6 week old Balb/c athymic nude mice (Jackson Laboratory, Bar Harbor, Me.). Mice were examined every 5 days until visible tumors appeared. Subsequently, tumor volume measurements were taken every 3-5 days, and mice were sacrificed 6 weeks after initial injections, and a final measurement of tumor volume was taken.
Further, in vivo tumor formation assay in nude mice was performed to determine if TSG101 knockdown affected the tumorigenicity of SKOV-3 cells. Seventy-two hours post transfection, SKOV-3 cells transfected either with TSG101 or control siRNA duplex were pair-wise injected subcutaneously into the left or right flanks, respectively, of the same BALB/c athymic nude mouse. Tumor growth was monitored for 6 weeks, at which time the tumors were harvested and tumor volume was measured. […] Due to the transient nature of the siRNA duplex, the actual effect of TSG101 gene silencing should be more prominent.

HIF-1α mRNA = HIF-1α mRNA by RT-PCR in SKOV-3 cells; type: cell-based, human; settings: SKOV-3, 3 days following siRNA transfection
Method: Total RNA was isolated from cells using Trizol reagent (Invitrogen), and concentration was determined by absorbance at 260 nm. Real-Time PCR analysis was carried out using fluorescent TSG101 primers on an Applied Biosystems Prism 7000 Sequence Detection System. RT-PCR was carried out for TSG101 and HIF-1α using 1 μg of isolated total RNA under the following parameters: 94° C. 1 min, 57° C. 1 min and 72° C. 1.5 min, 35 cycles. Primers used for RT-PCR were TSG10 forward 5′-[…]-3′ (SEQ ID NO: 1), reverse 5′-TTTCCTCC TTCATCCGCCATCTC-3′ (SEQ ID NO: 2), CITED2 forward 5′-[…]-3′ (SEQ ID NO: 3), reverse 5′-[…]-3′ (SEQ ID NO: 4), HIF-1a ? forward 5′-[…]-3′ (SEQ ID NO: 5), reverse 5′-[…]-3′ (SEQ ID NO: 6).
as §1

p21 = p21 protein by immunoblotting in SKOV-3 cells; type: cell-based, human; settings: SKOV-3, after 4 days following siRNA transfection
Method: Cells transfected with either control or TSG101 siRNA were passaged and subsequently harvested on the appropriate days by trypsinizing cells, washing pelleted cells in PBS and then lysing cells in SDS lysis buffer. Protein concentration of cell lysates was assayed with the Bio-Rad protein assay reagent. […] Immunoblots were developed by enhanced chemiluminescence (Pierce, Rockford, Ill.).

SKOV-3 cells [3] = assay: Flow cytometry cell cycle analysis (propidium iodide); type: cell-based, human
Method: SKOV-3 cells transfected with either TSG101 or control siRNA were grown and harvested 4 and 6 days after transfection. 1×10^6 cells were trypsinized from 10 cm plates and transferred to FACS tubes, washed twice with PBS, and then fixed with 70% ethanol for 2 h on ice. Ethanol was removed by centrifugation and cells were rehydrated in PBS at room temperature for 5 min. Cells were centrifuged to remove PBS and stained with 1 ml of propidium iodide staining solution (0.1% Triton X-100, 0.2 mg/ml RNAase A, 0.05 mg/ml propidium iodide, prepared fresh) for 1 h at room temperature. Cellular DNA content was then determined on a Becton-Dickinson FACS-Scan apparatus.

[4] = test system: TSG101 recruitment to the p21 promoter; assay: Chromatin immunoprecipitation (ChIP) assay with TSG101 antibody; type: cell-based, human; settings: SKOV-3, ChIP with TSG101 antibody, vs control siRNA
Description: Pelleted DNA was resuspended in TBE. […] ID NO: 11), reverse [NT] ID NO:12).

p21 mRNA = p21 mRNA by RT-PCR in SKOV-3 cells; type: cell-based, human; settings: SKOV-3, after 4 days following siRNA transfection
Method: Total RNA was isolated from cells using Trizol reagent (Invitrogen), and concentration was determined by absorbance at 260 nm. Semiquantitative RT-PCR was carried out using 1 μg of isolated total RNA. Primers used for RT-PCR were TSG101 forward 5′-[…]-3′ (SEQ ID NO: 1), reverse 5′-[…]-3′ (SEQ ID NO:2), p21 forward 5′-[…]-3′ (SEQ ID NO: 9), reverse 5′-CCGTTTTCGACCCTGAGAG-3′ (SEQ ID NO:10).

## TSG101 siRNA: siRNA duplex from Dharmacon targeting TSG101 coding sequence 413-433, SEQ ID NO: 7 and 8 (chain 1 CCUCCAGUCUUCUCUCGUCTT; chain 2 TTGGAGGUCAGAAGAGAGCAG; chemistry not fully specified; one strand is listed 3' to 5')
SKOV-3 cells [1]
  cell viability (MTT): decrease dramatically in number beginning 5 days post transfection
SKOV-3 cells [2]
  tumor volume: significantly smaller; also recorded: reduced tumor growth
HIF-1α mRNA
  HIF-1α mRNA expression: significantly down-regulated
p21
  p21 protein level: significantly upregulated
SKOV-3 cells [3]; SKOV-3, day 4
  cellular DNA content vs control siRNA: very similar
  sub-G1 apoptotic cell debris: not seen
SKOV-3 cells [3]; SKOV-3, day 6
  G1/G0 phase cells: decrease
  number of cells in G2/M phase: significant increase
  sub-G1 apoptotic cell debris: significant population
[4]
  recruitment of TSG101 to the p21 promoter: dramatically reduced
p21 mRNA
  p21 messenger RNA level: significantly upregulated
